# From patent US9777003B2, “Tricyclic heterocycles as bet protein inhibitors” (Incyte Corporation, priority 2013, dated 2017)
# Where a name gives a salt, the structure may show the parent alone.
# Assays:
# BRD4-BD1 = BRD4-BD1 (Homo sapiens (Human), UniProt O60885); assay: BRD4 AlphaScreen assay, BRD4-BD1; assay type: binding; settings: biotin-labeled tetra-acetylated histone H4 peptide, 75 min, room temperature, read-out: BRD4 BD-1 enzyme IC50
# Description: (§1) BRD4-BD1 and BRD4-BD2 assays were conducted in white 384-well polystyrene plate in a final volume of 20 μL for BD1 and 40 μL for BD2. Inhibitors were first serially diluted in DMSO and added to the plate wells before the addition of other reaction components. The final concentration of DMSO in the assay was 1.25% (BD1) and 0.83% (BD2). The assays were carried out at room temperature for 75 min. in the assay buffer (50 mM HEPES, pH 7.4, 100 mM NaCl, 0.05% CHAPS, 0.01% BSA), containing 50 nM Biotin-labeled tetra-acetylated histone H4 peptide (H4Ac4), 3.8 nM (BRD4-BD1, BPS Bioscience #31040) or 20 nM (BRD4-BD2, BPS Bioscience #31041). The reaction followed by the addition of 20 μL of assay buffer supplemented with Streptavidin donor beads (PerkinElmer 6760002) and GSH Acceptor beads (PerkinElmer-AL109C) at 4 μg/mL under reduced light. After plate sealing, the plate was incubated in the dark at room temperature for 75 min. before reading on a PHERAstar FS plate reader (BMG Labtech). IC50 determination was performed by fitting the curve of percent control activity versus the log of the inhibitor concentration using the GraphPad Prism 5.0 software.
# BRD4-BD2 = BRD4-BD2 (Homo sapiens (Human), UniProt O60885); assay: BRD4 AlphaScreen assay, BRD4-BD2; assay type: binding; settings: biotin-labeled tetra-acetylated histone H4 peptide, 75 min, room temperature, read-out: BRD4 BD-2 enzyme IC50
# Description: as §1
IC50 (BRD4-BD1) [nM],IC50 (BRD4-BD2) [nM],Structure (SMILES)
100 to 1000,≤ 100,"Cc1nnc2ccc3c(ccn3C(C)c3ccccc3)n12 (racemic) [Example 4, 1-methyl-6-(1-phenylethyl)-6H-pyrrolo[2,3-e][1,2,4]triazolo[4,3-a]pyridine]"
100 to 1000,100 to 1000,"CCCCC(c1ccccc1)n1c(C)cc2c1ccc1nnc(C)n12 (racemic) [Example 24, 1,7-dimethyl-6-(1-phenylpentyl)-6H-pyrrolo[2,3-e][1,2,4]triazolo[4,3-a]pyridine]"
100 to 1000,100 to 1000,"Cc1cc2c(ccc3nnc(C)n32)n1C(CO)c1ccccc1 (racemic) [Example 29, 2-(1,7-dimethyl-6H-pyrrolo[2,3-e][1,2,4]triazolo[4,3-a]pyridin-6-yl)-2-phenylethanol]"
≤ 100,≤ 100,"Cc1nnc2ccc3c(cc(-c4ccn(C(C)CC#N)n4)n3Cc3ccccc3)n12 (racemic) [Example 87, 3-[3-(6-benzyl-1-methyl-6H-pyrrolo[2,3-e][1,2,4]triazolo[4,3-a]pyridin-7-yl)-1H-pyrazol-1-yl]butanenitrile Trifluoroacetate Salt]"
≤ 100,≤ 100,"Cc1nnc2ccc3c(cc(-c4ccn(CC(C)C#N)n4)n3Cc3ccccc3)n12 (racemic) [Example 88, 3-[3-(6-benzyl-1-methyl-6H-pyrrolo[2,3-e][1,2,4]triazolo[4,3-a]pyridin-7-yl)-1H-pyrazol-1-yl]-2-methylpropanenitrile Trifluoroacetate Salt]"
≤ 100,≤ 100,"Cc1cc2c(cc(NC3CCCN(C)C3)c3nnc(C)n32)n1Cc1ccccc1 (racemic) [Example 144, 6-benzyl-1,7-dimethyl-N-(1-methylpiperidin-3-yl)-6H-pyrrolo[2,3-e][1,2,4]triazolo[4,3-a]pyridin-4-amine]"
≤ 100,≤ 100,"Cc1cc2c(cc(NC3CCN(C)C3)c3nnc(C)n32)n1Cc1ccccc1 (racemic) [Example 145, 6-benzyl-1,7-dimethyl-N-(1-methylpyrrolidin-3-yl)-6H-pyrrolo[2,3-e][1,2,4]triazolo[4,3-a]pyridin-4-amine bis(trifluoroacetate) Salt]"
1000 to 10000,100 to 1000,"Cc1nnc2ccc3c(cc(C4CCNC4)n3Cc3ccccc3)n12 (racemic) [Example 186, 6-Benzyl-1-methyl-7-pyrrolidin-3-yl-6H-pyrrolo[2,3-e][1,2,4]triazolo[4,3-a]pyridine bis(trifluoroacetate) Salt]"
1000 to 10000,1000 to 10000,"CC(=O)N1CCC(c2cc3c(ccc4nnc(C)n43)n2Cc2ccccc2)C1 (racemic) [Example 187, 7-(1-Acetylpyrrolidin-3-yl)-6-benzyl-1-methyl-6H-pyrrolo[2,3-e][1,2,4]triazolo[4,3-a]pyridine Trifluoroacetate Salt]"
≤ 100,≤ 100,"Cc1nnc2ccc3c(cc(-c4ncco4)n3Cc3cc(Cl)cc(CN4CCC(O)C4)c3)n12 (racemic) [Example 199, 1-(3-Chloro-5-{[1-methyl-7-(1,3-oxazol-2-yl)-6H-pyrrolo[2,3-e][1,2,4]triazolo[4,3-a]pyridin-6-yl]methyl}benzyl)pyrrolidin-3-ol bis(trifluoroacetate) Salt (Racemic)]"
≤ 100,≤ 100,"Cc1cc2c(cc(N[C@H]3CCN(C)[C@H](C)C3)c3nnc(C)n32)n1Cc1ccccc1 (racemic) [Example 225, 6-Benzyl-N-[(2R,4S)-1,2-dimethylpiperidin-4-yl]-1,7-dimethyl-6H-pyrrolo[2,3-e][1,2,4]triazolo[4,3-a]pyridin-4-amine and 6-Benzyl-N-[(2S,4R)-1,2-dimethylpiperidin-4-yl]-1,7-dimethyl-6H-pyrrolo[2,3-e][1,2,4]triazolo[4,3-a]pyridin-4-amine]"
100 to 1000,≤ 100,"Cc1nnc2ccc3c(ccn3Cc3ccccc3)n12 [Example 1, 6-benzyl-1-methyl-6H-pyrrolo[2,3-e][1,2,4]triazolo[4,3-a]pyridine]"
≤ 100,≤ 100,"Cc1cc2c(ccc3nnc(C)n32)n1Cc1ccccc1 [Example 2, 6-benzyl-1,7-dimethyl-6H-pyrrolo[2,3-e][1,2,4]triazolo[4,3-a]pyridine]"
,100 to 1000,"Cc1cc2c(ccc3nnc(C)n32)n1S(=O)(=O)c1ccccc1 [Example 2a, 1,7-dimethyl-6-(phenylsulfonyl)-6H-pyrrolo[2,3-e][1,2,4]triazolo[4,3-a]pyridine]"
100 to 1000,100 to 1000,"Cc1nnc2ccc3c(ccn3S(=O)(=O)c3ccccc3)n12 [Example 3, 1-methyl-6-(phenylsulfonyl)-6H-pyrrolo[2,3-e][1,2,4]triazolo[4,3-a]pyridine]"
100 to 1000,100 to 1000,"Cc1cc2c(ccc3nnc(C)n32)n1CCc1ccccc1 [Example 6, 1,7-dimethyl-6-(2-phenylethyl)-6H-pyrrolo[2,3-e][1,2,4]triazolo[4,3-a]pyridine]"
100 to 1000,100 to 1000,"Cc1cc2c(ccc3nnc(C)n32)n1Cc1ccccn1 [Example 7, 1,7-dimethyl-6-(pyridin-2-ylmethyl)-6H-pyrrolo[2,3-e][1,2,4]triazolo[4,3-a]pyridine]"
100 to 1000,≤ 100,"Cc1cc2c(ccc3nnc(C)n32)n1Cc1ccccc1Cl [Example 8, 6-(2-chlorobenzyl)-1,7-dimethyl-6H-pyrrolo[2,3-e][1,2,4]triazolo[4,3-a]pyridine]"
≤ 100,≤ 100,"Cc1cc2c(ccc3nnc(C)n32)n1Cc1cccc(Cl)c1 [Example 9, 6-(3-chlorobenzyl)-1,7-dimethyl-6H-pyrrolo[2,3-e][1,2,4]triazolo[4,3-a]pyridine]"
≤ 100,≤ 100,"Cc1cc2c(ccc3nnc(C)n32)n1Cc1ccc(Cl)cc1 [Example 10, 6-(4-chlorobenzyl)-1,7-dimethyl-6H-pyrrolo[2,3-e][1,2,4]triazolo[4,3-a]pyridine]"
100 to 1000,100 to 1000,"Cc1cc2c(ccc3nnc(C)n32)n1Cc1cccnc1 [Example 11, 1,7-dimethyl-6-(pyridin-3-ylmethyl)-6H-pyrrolo[2,3-e][1,2,4]triazolo[4,3-a]pyridine]"
100 to 1000,100 to 1000,"Cc1cc2c(ccc3nnc(C)n32)n1Cc1ccncc1 [Example 12, 1,7-dimethyl-6-(pyridin-4-ylmethyl)-6H-pyrrolo[2,3-e][1,2,4]triazolo[4,3-a]pyridine]"
100 to 1000,≤ 100,"Cc1cc2c(ccc3nnc(C)n32)n1CC1CCCC1 [Example 13, 6-(cyclopentylmethyl)-1,7-dimethyl-6H-pyrrolo[2,3-e][1,2,4]triazolo[4,3-a]pyridine]"
≤ 100,≤ 100,"Cc1cc2c(ccc3nnc(C)n32)n1Cc1ccccc1F [Example 14, 6-(2-fluorobenzyl)-1,7-dimethyl-6H-pyrrolo[2,3-e][1,2,4]triazolo[4,3-a]pyridine]"
≤ 100,≤ 100,"Cc1cc2c(ccc3nnc(C)n32)n1Cc1cccc(F)c1 [Example 15, 6-(3-fluorobenzyl)-1,7-dimethyl-6H-pyrrolo[2,3-e][1,2,4]triazolo[4,3-a]pyridine]"
≤ 100,≤ 100,"Cc1cc2c(ccc3nnc(C)n32)n1Cc1ccc(F)cc1 [Example 16, 6-(4-fluorobenzyl)-1,7-dimethyl-6H-pyrrolo[2,3-e][1,2,4]triazolo[4,3-a]pyridine]"
≤ 100,≤ 100,"Cc1ccccc1Cn1c(C)cc2c1ccc1nnc(C)n12 [Example 17, 1,7-dimethyl-6-(2-methylbenzyl)-6H-pyrrolo[2,3-e][1,2,4]triazolo[4,3-a]pyridine]"
≤ 100,≤ 100,"Cc1cccc(Cn2c(C)cc3c2ccc2nnc(C)n23)c1 [Example 18, 1,7-dimethyl-6-(3-methylbenzyl)-6H-pyrrolo[2,3-e][1,2,4]triazolo[4,3-a]pyridine]"
≤ 100,≤ 100,"Cc1ccc(Cn2c(C)cc3c2ccc2nnc(C)n23)cc1 [Example 19, 1,7-dimethyl-6-(4-methylbenzyl)-6H-pyrrolo[2,3-e][1,2,4]triazolo[4,3-a]pyridine]"
100 to 1000,≤ 100,"Cc1cc2c(ccc3nnc(C)n32)n1Cc1cccc(C#N)c1 [Example 20, 3-[(1,7-dimethyl-6H-pyrrolo[2,3-e][1,2,4]triazolo[4,3-a]pyridine-6-yl)methyl]benzonitrile]"

Structure (SMILES),IC50 (BRD4-BD1) [nM],IC50 (BRD4-BD2) [nM]
"Cc1cc2c(cc(NC3CCC(C#N)CC3)c3nnc(C)n32)n1Cc1ccccc1 (single isomer, unassigned) [Example 215 a, 4-[(6-benzyl-1,7-dimethyl-6H-pyrrolo[2,3-e][1,2,4]triazolo[4,3-a]pyridin-4-yl)amino]cyclohexanecarbonitrile Trifluoroacetate Salt]",100 to 1000,≤ 100
"Cc1cc2c(cc(N[C@H]3CC[C@@H](C#N)CC3)c3nnc(C)n32)n1Cc1ccccc1 (single isomer, unassigned) [Example 215 b, 4-[(6-benzyl-1,7-dimethyl-6H-pyrrolo[2,3-e][1,2,4]triazolo[4,3-a]pyridin-4-yl)amino]cyclohexanecarbonitrile Trifluoroacetate Salt]",≤ 100,≤ 100
